Values of other authors as cited in patent US20070298107A1, “Pharmaceutical Compositions of Mirtazapine” (AUROBINDO PHARMA LTD., priority 2003, published 2007).

Details: background statement

- solubility in water: essentially insoluble
SMILES: CN1CCN2c3ncccc3Cc3ccccc3C2C1 (stereo not shown) [Mirtazapine]
